Three compounds from patent US9795135B2, “Binary fungicidal composition” (BAYER CORPSCIENCE AKTIENGESELLSCHAFT, priority 2013, dated 2017) can be followed below.

The subject of experiment [1] is Alternaria solani. Put plainly: Alternaria test (tomatoes) / preventive. It is filed as in vivo. To be noted: 80 ppm a.i.; tomatoes sprayed 24 h before inoculation; evaluated 3 days after inoculation. As to the method: Alternaria Test (Tomatoes)/Preventive
(§1) Biological control agents and diverse chemical active compounds were tested solo and in a mixture of both. The biological control agents SERENADE® DPZ (comprising the biological control agent B1.1.18, Bacillus subtilis, strain AQ30002, Accession No. NRRL B-50421), SERENADE® ASO (comprising the biological control agent B1.1.1, Bacillus subtilis, strain QST713/AQ713, Accession No. NRRL B-21661) and SONATA® (comprising the biological control agent B1.1.6, Bacillus pumilus, strain QST2808, Accession No. NRRL B-30087) were diluted with water to the desired application rate of 100 ppm a.i. to 500 ppm a.i., referring to the amount of 1.34% Bacillus subtilis or 1.38% Bacillus pumilis product.
The chemical compounds were solved in acetone+dimethylacetamide in a ratio of 1/1+2% PS 16 (Alkylarylpolyglykolether) and diluted with water or the prepared bacteria suspension. Chemical compounds were tested in the concentration of 80 ppm a.i.
In order to test the activity, young plants of tomatoes (21 d after sowing) were sprayed with the preparation of active compound at the stated rate of application. 24 h after application, the plants were inoculated with an aqueous spore suspension (7.500 spores/ml) of Alternaria solani. The wetted plants were then placed in an incubation cabinet at approximately 20° C. and a relative atmospheric humidity of 100% and darkness.
The test was evaluated 3 days after the inoculation. Assessment: % infested leaf. 0% efficacy corresponds to the level of disease in the untreated control while an efficacy of 100% means that no disease is observed.

The subject of experiment [2] is Sphaerotheca fuliginea. Put plainly: Sphaerotheca test (cucumbers) / preventive. It is filed as in vivo. To be noted: 80 ppm a.i.; cucumber sprayed 24 h before inoculation; evaluated 7 d after inoculation. As to the method:
Sphaerotheca Test (Cucumbers)/Preventive
as §1, with “B-50421), SERENADE” for “B-50421), SERENADE®”
The chemical compounds were solved in acetone+dimethylacetamide in the ratio 1/1+2% PS 16 (Alkylarylpolyglykolether) and diluted with water or the prepared bacteria suspension. Chemical compounds were tested in the concentration of 80 ppm a.i.
In order to test the activity, young plants (kotyledones are fully developed) of cucumber c.v. “Delikatess” were sprayed with the undermentioned preparation of compounds at the stated time of application. 24 h after application, the plants were inoculated with an aqueous spore suspension of Sphaerotheca fuliginea. Infested plants were stored in greenhouse at 22° C. and 70% relative humidity.
The test was evaluated 7 d after inoculation. Assessment: % infested leaf. 0% efficacy corresponds to the level of disease in the untreated control while an efficacy of 100% means that no disease is observed.

`CC1(C)N=C(c2cnc3ccccc3c2)c2cccc(F)c2C1(C)C` [(I-1)]: the “Efficacy in % Found*” value in experiment [1] came to 37%; in experiment [2], 49%.

Take `CC1(C)N=C(c2cnc3ccccc3c2)c2ccccc2C1(F)F` [(I-2)]: the “Efficacy in % Found*” value came out at 13% in experiment [1] and 35% in experiment [2].

Consider `CC1(C)N=C(c2cnc3ccccc3c2)c2cccc(F)c2C1(F)F` [(I-3)], for which the “Efficacy in % Found*” value in experiment [1] was 37%; in experiment [2], 32%.
